The source of these data is US6710064B2, “Hydantoin compounds useful as anti-inflammatory agents” (Bristol-Myers Squibb Co., priority 2000, dated 2004).

Molecules are shown by their SMILES.

Consider `O=C1[C@H]2C[C@@H](OCc3ccc(Br)cc3)CN2C(=O)N1c1cc(Cl)cc(Cl)c1` [Example 6, (7aR,6R)-2-(3,5-dichloro-phenyl)-6-(4-bromobenzyloxy)-tetrahydro-pyrrolo[1,2-c]imidazole-1,3-dione], for which the melting point was determined as 135 °C.

Broadly, the melting point is the temperature, or range, at which the solid turns liquid.
